Source: patent US20030087830A1, “Low molecular weight components of cartilage, complexes of metals with amino acids, DI-peptides and analogs thereof; processes for preparation and therapeutic uses thereof” (priority 2001, published 2003)
Residues, ends and D or L forms follow the SMILES beside them.

Legend:
[1] = tested on: blood vessel formation in the vitelline membrane of chick embryo; assay: Embryonic Vascularization Test (EVT); assay type: in vivo; conditions: for EVT activity (in words): in vivo
Experimental: The Embryonic Vascularization Test (EVT) was performed to determine the ability of test samples to inhibit the formation of new blood vessels (antiangiogenic activity).
The normal development of a chick embryo involves the formation of an external vascular system located in the vitelline membrane which carries nutrients from the vitellus (yolk) to the developing embryo. When placed onto the vitelline membrane, antiangiogenic substances can inhibit the blood vessel formation that occurs in the vitelline membrane. Briefly, methylcellulose discs (an inert solid and transparent matrix) containing different test samples were placed on the external border of the vascular perimeter of the vitelline membrane, where the angiogenic process occurs. Vascularization was assessed 24 hours after disc deposition, and results were expressed as the percent of embryos in which blood vessel formation was affected. The blood vessel formation was considered affected when its growing path was either deviated, or diminished or when there was no growth observed beyond the disc as compared to the negative control. The results are expressed as 0, +, and ++ where 0 is for a lower response than 25 percent of the eggs; + is for a response between 25 and 50 percent; and ++ is for an antiangiogenic response observed in more than 50 percent of the eggs.
(§1) According to the endothelial cell proliferation assay, the relative effectiveness of two compounds is compared by reference to the EC50 thereof. The EC50 is the concentration of compound at which the number of endothelial cells is reduced by 50% as compared to control. The efficacy of the test samples in EVT is established by the percent of eggs with altered angiogenesis at a given inhibitor dose of 0.6 mg of copper equivalent (see FIG. 6 for examples). A comparison of the antiangiogenic activity of the compounds of the present invention with divalent metal salts (CuCl2, MgCl2, ZnCl2, CoCl2) and uncoupled alpha-amino acids, alpha-imino acids, dipeptides, and nitrogenated molecules comprising a carboxylic acid group, such as creatine, is provided to illustrate that the formation of the amino acid-copper complex gives rise to complexes having antiangiogenic activity.

Endothelial cells [2] = assay: Endothelial cell migration assay (VEGF, modified Boyden chamber); assay type: cell-based
Experimental: The endothelial cell migration assay was performed to determine the ability of test samples to inhibit the chemotaxic activity of vascular endothelial growth factor (VEGF;R/D System, MN) using a modified Boyden chamber (Transwell™, Corning/Costar). Briefly, polyvinylidene difluoride filters (PVDF) were coated with Pronectin F (Biosources, CA), a constituent of basement membrane barrier. Boyden chambers were assembled by adding VEGF to the culture media in the lower chamber (chemoattractant). Endothelial cells suspended in cultured media in the presence or the absence of the test samples were added to the upper chamber. The chambers were then incubated for a period of 4.5 hours at 37° C. At the end of the incubation period, the cells from both side of the PVDF membrane were fixed with 3.7% formaldehyde. Cells from the upper surface of the membrane were mechanically removed, and the cells remaining on the underside of the membrane were stained with crystal violet (0.5%; Sigma). Cells were then carefully rinsed and the dye fixed to the cells was quantified with a microplate reader ([…]) after its solubilization with a solution of 50% citric acid (0.1M) in water and 50% ethanol.

[3] = tested on: Endothelial cells (HUVEC, BAEC); assay: Endothelial cell proliferation; assay type: cell-based, human / bovine; conditions: for EC50: 48 hours, copper equivalent, NA = less than 50% at 1.25 mM copper equivalent, read-out: EC proliferation (EC50 mM)
Experimental: (§2) Endothelial and tumor cell proliferation assays were performed to determine the ability of test samples to inhibit endothelial cell proliferation (antiangiogenic activity), normal cell proliferation,and tumor cell proliferation.
(§3) Endothelial cells (Human umbilical vein endothelial cells (HUVEC), bovine aortic endothelial cells (BAEC)), skeletal muscle cells, human dermal fibroblasts (all from Clonetics, Walkersville, Md.) were respectively maintained in EBM-2, MDEM, SKGM and FGFM-2 complete media according to manufacturer's instructions. Tumor rat glioblastoma cell line (C6) was maintained in DMEM (Sigma, Oaksville, Ontario) supplemented with 10% fetal calf serum (FCS) and antibiotics in 5% CO2. Briefly, cells seeded in 96-well sterile tissue culture dishes were treated with increasing concentrations of different test samples for a period of 48 hours at 37° C. Cell number was then evaluated by a calorimetric assay using the cell proliferation reagent tetrazolium salt and the fluorimetric assay using DNA dye (Hoescht) according to the procedure established by the manufacturer (Boehringer Mannhein). The conversion of these tetrazolium salts into formazan occurs only in metabolically active cells. The percentage of cell inhibition was determined by comparison to untreated cells.
as §1

[4] = tested on: Lewis lung carcinoma clone M27; assay: Lewis Lung Carcinoma metastatic mouse model (LLC); assay type: in vivo, C57BL/10 female mice; conditions: for Antimetastatic activity (% inhibition) (at 2.5 mg/kg of Cu-complex): intraperitoneal daily for two weeks, lung surface metastases
Source text: The Lewis Lung Carcinoma mouse model (LLC) was used to determine the ability of different test samples to inhibit the formation of metastases within the lung. The Lewis lung carcinoma clone M27, with a high metastatic potential to the lung, was established by Dr P. Brodt (Brodt P, Characterization of two highly metastatic variants of Lewis lung carcinoma with different organ specificities. Cancer Res., 46: 2442, 1986). This model is well established and is known for its predictive correlation between in vitro and in vivo activity. Briefly, LLC cells were transplanted subcutaneously in the axillary region of the right flank of C57BL/10 female mice (Charles River Inc.) When the primary tumor reached a size of 0.5-1.0 cm^3 (day 10 post-inoculation), the tumor was carefully separated from the surrounding healthy tissues. Treatment with different test samples started the day following tumor removal (day 11 post-inoculation). Saline or different test samples were administered daily for two weeks by intraperitoneal injection (0.2 ml of each dose). As previous experiments had shown that a period of approximately two weeks after removal of the primary tumor was sufficient to obtain an average of 30 to 50 nodules on the lung surface, animals were sacrificed in a CO2 chamber two weeks later. Following autopsy, both lungs were removed, weighed and fixed in 10% Bouin's fixative. Lung surface metastases were counted using a stereomicroscope (4×).

Endothelial cells [5] = assay: Endothelial cell tubule formation assay (tubulogenesis); assay type: cell-based; design: key to Tubulogenesis: 0: Numerous capillary-like tube forming pentagonal network; +: Decrease of capillary-like tubes; ++: Dramatic decrease of capillary-like tubes; +++: Absence of capillary-like tubes
Experimental: The endothelial cell tubule formation assay is a semi-quantitative assay that was performed to determine the ability of test samples to inhibit this multi-step process, which involves cell adhesion, migration, differentiation and growth, using a commercial kit (Chemicon). Briefly, endothelial cells were seeded on solid gel of Ecmatrix™ (Chemicon), basement proteins prepared from the Engelbreth Holm-Swarm (EHS) mouse tumor in microplate in a E-99 media (Sigma) supplemented with 5% FBS and VEGF (50 ng/ml) in the presence or absence of the test sample. Cells were incubated for a period of 24 hours at 37° C. Pictures were taken on the entire tissue culture dish using a binocular microscope for further evaluation.

[6] = tested on: bFGF-stimulated blood vessel formation in Matrigel; assay: Matrigel in vivo angiogenesis assay; design: species or system C57B1/6 mice; conditions: for Matrigel in vivo % inhibition: intra-peritoneal daily 10 days
Experimental: The Matrigel™ in vivo assay was performed to determine the ability of test samples to inhibit blood vessel formation (antiangiogenic activity) and to establish their bioavailability in vivo.
Briefly, liquid Matrigel™ (Becton Dickinson, Bedford, Mass.) was maintained at 4° C. and mixed thoroughly for at least 3 hours with 1,500 ng/ml basic fibroblast growth factor (bFGF) (R&D Systems, Minneapolis, Minn.) used as the primary angiogenic stimulus. The mixture (0.5 ml) was injected subcutaneously into the ventral midline of C57B1/6 mice, and treatment with different test samples or saline solution was initiated the same day. Additional animals were also injected with Matrigel™ containing no bFGF to serve as baseline controls. The animals were treated daily for a 10 day period (intra-peritonealy, 0.2 ml of each dose). At day 11, animals were injected with FITC-dextran 20 min prior to euthanizing treated mice. Matrigel™ gels were removed along with underlying peritoneum and prepared for FITC-dextran detection by fluorimetry. The concentration of FITC-dextran in the gels was calculated from a known concentration of FITC-dextran using a standard curve. The FITC-dextran content of the gels from compound-treated animals and controls was expressed as a percent of the positive bFGF-treated controls after the baseline control of FITC-dextran levels were subtracted from all groups.

[7] = Affinity of the amino acid with copper; assay type: physicochemical
human dermal fibroblasts = assay: Fibroblast proliferation; assay type: cell-based; conditions: 48 hours; free amino acids and Glu-Trp 2.5 mM, CuCl2 1.25 mM
Experimental: as §2, §3

[8] = tested on: Striated muscle cells (skeletal muscle cells); assay: Striated muscle cell proliferation; assay type: cell-based; conditions: 48 hours; free amino acids and Glu-Trp 2.5 mM, CuCl2 1.25 mM
Experimental: as §2, §3

[9] = activity at 0.6 mg equivalent Copper
[10] = copper complexes, concentration not given, VEGF, 4.5 hours
[11] = copper complexes, concentration not given, VEGF 50 ng/ml, 24 hours

Compound | EVT (% of inhibition) [1, 9] | EVT activity (in words) [1] | Cell migration activity (in words) (Endothelial cells [2]) | Endothelial cell proliferation activity (in words) [3] | Antimetastatic activity (% inhibition) (at 2.5 mg/kg of Cu-complex) [4] [%] | Tubulogenesis activity (in words) (Endothelial cells [5]) | Matrigel in vivo % inhibition ([6]; 7.0 mg/Kg equivalent copper) [%] | Cell Migration (% inhibition) (Endothelial cells [2]; [10]) [%] | Affinity of the AA with Cooper [7] | EC50 [3] [mM] | Tubulogenesis (Endothelial cells [5]; [11]) | EC50 (human dermal fibroblasts) [mM] | further results
N[C@@H](CCC(=O)O)C(=O)N[C@@H](Cc1c[nH]c2ccccc12)C(=O)O [Free Glu-Trp, glutamyl-tryptophane, reference compound] (H-Glu-Trp-OH) | 0 (0 non-active (less than 25% of inhibition)) | almost inactive | did not show any activity | almost inactive | 22.8 | did not show any activity | – | – | – | – | – | – | inhibition at 2500 µM (Endothelial cells [2]; Endothelial cell, 2.5 mM free (not complexed) ligand): 10%; Tubulogenesis (Endothelial cells [5]; 2.5 mM free (not complexed) ligand): 0
N[C@@H](Cc1c[nH]cn1)C(=O)[O-].N[C@@H](Cc1c[nH]cn1)C(=O)[O-].[Cu+2] [Compound 10, L-His:Cu:L-His] | 0 (0 non-active (less than 25% of inhibition)) | inactive | did not show any activity | inactive | 63.0 | did not show any activity | 63.4 | 65 | 19.4 | 0.9 | 0 | – | Matrigel in vivo antiangiogenic activity (in words) ([6]; mouse, in vivo): more active than compound 6
C[C@@H](O)[C@H](N)C(=O)[O-].C[C@@H](O)[C@H](N)C(=O)[O-].[Cu+2] [Compound 5, L-Thr:Cu:L-Thr] | ++ (++ more than 50% of inhibition) | – | important activity | – | – | important activity | 59.4 | 90 | 15.4 | 0.3 | ++ | 1.34 | Matrigel in vivo % inhibition ([6]; 1.4 mg/Kg equivalent copper): 47.7%
(Glu—Trp)2-Cu [Compound 33] | ++ (++ more than 50% of inhibition) | – | important activity | – | 44 | important activity | – | 96 | – | 0.23 | +++ | 0.66 | EVT (% of inhibition) ([1]; 0.6 mg copper equivalent, percent of embryos with affected blood vessel formation, 24 hours after disc deposition): 60%; EC50 [8]: 0.47 mM; Anti-metastatic activity in vivo (in words) ([4]; mouse, in vivo): more active than the free di-peptide
[Cl][Cu][Cl] [CuCl2, copper chloride, reference compound] | – | – | did not show any activity | – | – | did not show any activity | 24.2 | – | – | – | – | – | Cell Migration (% inhibition) (Endothelial cells [2]; 1.25 mM): 6%; Tubulogenesis (Endothelial cells [5]; 1.25 mM): 0
